Data: PubChem BioAssay AID256 (DTP/NCI, 2004)
Values joined by “and” are separate entries in the source; they are usually repeats but may differ in a detail not shown here. Equal values may be shown once. Toxic doses and inconclusive results are not listed. Rule for the calls: active = survival T/C of 150% or more; inactive = T/C below 125% in these data.

Tested on: CD2F1 mice, L1210 leukemia ip, survival T/C
Assay: NCI In Vivo Anticancer Drug Screen. Data for tumor model L1210 Leukemia (intraperitoneal) in CD2F1 (CDF1) mice
Conditions: endpoint: mean survival time, higher = longer survival
How it was run: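 Activity against a transplanted murine tumor was judged by comparing the compound group with a vehicle group. The outcome in the treated animals was divided by that in the controls.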

[1] = dose: 100.0 mg/kg/injection, schedule: Q01DX001 (ip), vehicle: saline
[2] = dose: 200.0 mg/kg/injection, schedule: Q01DX001 (ip), vehicle: saline
[3] = dose: 100.0 mg/kg/injection, schedule: Q04DX003 (ip), vehicle: saline with Tween-80
[4] = dose: 200.0 mg/kg/injection, schedule: Q04DX003 (ip), vehicle: saline with Tween-80
[5] = dose: 400.0 mg/kg/injection, schedule: Q04DX003 (ip), vehicle: saline with Tween-80

Measured: T/C

O=[N+]([O-])c1ccc(N/N=C2\C(c3ccccc3)=C(c3ccccc3)CC2Cl)c([N+](=O)[O-])c1 (configuration not stated)
inactive: dose: 100.0 mg/kg/injection, schedule: Q01DX001 (ip), vehicle: saline with Tween-80 90 % of control | dose: 200.0 mg/kg/injection, schedule: Q01DX001 (ip), vehicle: saline with Tween-80 101 % of control | dose: 400.0 mg/kg/injection, schedule: Q01DX001 (ip), vehicle: saline with Tween-80 96 % of control

OCCCNCc1ccccc1
inactive: dose: 100.0 mg/kg/injection, schedule: Q01DX009 (ip), vehicle: saline 97 % of control | dose: 200.0 mg/kg/injection, schedule: Q01DX009 (ip), vehicle: saline 96 % of control | dose: 400.0 mg/kg/injection, schedule: Q01DX009 (ip), vehicle: saline 100 % of control

CC12CCC(O)CC1CCC1C2CCC2(C)C(C3COC(=O)C3)CCC12 (configuration not stated)
inactive: dose: 50.0 mg/kg/injection, schedule: Q01DX001 (ip), vehicle: saline 98 % of control | [1] 98 % of control | [2] 96 % of control

Cc1ccc(S(=O)(=O)OCCCCCCCCCCOS(=O)(=O)c2ccc(C)cc2)cc1
inactive: dose: 100.0 mg/kg/injection, schedule: Q01DX009 (ip), vehicle: saline with Tween-80 91 % of control | [3] 91 % of control | dose: 200.0 mg/kg/injection, schedule: Q01DX009 (ip), vehicle: saline with Tween-80 92 % of control | [4] 97 % of control | dose: 400.0 mg/kg/injection, schedule: Q01DX009 (ip), vehicle: saline with Tween-80 91 % of control | [5] 94 % of control

C=C(C)C12CC(C)C34OC5(CCCCCCCC(C)C6C(C)C(OC(=O)c7ccccc7)C(O)(C(O)C7(COC(=O)CCCCCCCCCCCCCCC)OC7C3C1O5)C64)O2 (configuration not stated)
inactive: dose: 1.5 micrograms/kg/injection, schedule: Q01DX009 (ip), vehicle: saline 103 % of control | dose: 3.1 micrograms/kg/injection, schedule: Q01DX009 (ip), vehicle: saline 104 % of control | dose: 6.2 micrograms/kg/injection, schedule: Q01DX009 (ip), vehicle: saline 97 % of control | dose: 12.5 micrograms/kg/injection, schedule: Q01DX009 (ip), vehicle: saline 104 % of control | dose: 25.0 micrograms/kg/injection, schedule: Q01DX009 (ip), vehicle: saline 95 % of control | dose: 50.0 micrograms/kg/injection, schedule: Q01DX009 (ip), vehicle: saline 101 % of control

CC(C)(C)OC(=O)NC(CCCCNC(=O)C(F)(F)F)C(=O)ON1C(=O)CCC1=O (configuration not stated)
inactive: dose: 25.0 mg/kg/injection, schedule: Q04DX003 (ip), vehicle: saline with Tween-80 102 % of control | dose: 50.0 mg/kg/injection, schedule: Q04DX003 (ip), vehicle: saline with Tween-80 102 % of control | [3] 89 % of control and 101 % of control

COc1ccc(CCNC(=O)Cc2cc3c(cc2[N+](=O)[O-])OCO3)cc1OC
inactive: [1] 95 % of control | [2] 94 % of control | dose: 400.0 mg/kg/injection, schedule: Q01DX001 (ip), vehicle: saline 95 % of control

CC1(C)N=C(N)N=C(N)N1c1cccc(CCCCc2ccc(S(=O)(=O)F)cc2Cl)c1
inactive: dose: 12.5 mg/kg/injection, schedule: Q01DX009 (ip), vehicle: saline sonified 87 % of control | dose: 12.5 mg/kg/injection, schedule: Q04DX003 (ip), vehicle: saline sonified 96 % of control | dose: 25.0 mg/kg/injection, schedule: Q01DX009 (ip), vehicle: saline sonified 89 % of control | dose: 25.0 mg/kg/injection, schedule: Q04DX003 (ip), vehicle: saline sonified 96 % of control | dose: 50.0 mg/kg/injection, schedule: Q04DX003 (ip), vehicle: saline sonified 92 % of control

CCCCCCCNC(=O)Nc1cc([N+](=O)[O-])ccc1C
inactive: [3] 93 % of control | [4] 94 % of control | [5] 98 % of control

Ic1cccs1
inactive: [1] 95 % of control

CCC(C)Nc1ccc(N)cc1 (configuration not stated)
inactive: dose: 0.09 mg/kg/injection, schedule: Q01DX009 (ip), vehicle: Klucel (hydroxypropylcellulose) (HPC) 103 % of control | dose: 0.18 mg/kg/injection, schedule: Q01DX009 (ip), vehicle: Klucel (hydroxypropylcellulose) (HPC) 94 % of control | dose: 0.37 mg/kg/injection, schedule: Q01DX009 (ip), vehicle: Klucel (hydroxypropylcellulose) (HPC) 103 % of control | dose: 0.75 mg/kg/injection, schedule: Q01DX009 (ip), vehicle: Klucel (hydroxypropylcellulose) (HPC) 103 % of control | dose: 1.5 mg/kg/injection, schedule: Q01DX009 (ip), vehicle: Klucel (hydroxypropylcellulose) (HPC) 102 % of control | dose: 3.0 mg/kg/injection, schedule: Q01DX009 (ip), vehicle: Klucel (hydroxypropylcellulose) (HPC) 94 % of control
